Here are results for 102 compounds from PubChem BioAssay AID1996.

In brackets after ≈: the same amount, converted by molar mass.

For this data set the following is noted: buffer; pH 7.4; 200.0 µM.
Usually solubility (kinetic) stands for solubility judged after dilution from a stock solution rather than from solid. In turn, `COc1cc(CSc2nc(-c3ccccc3)cc(=O)[nH]2)cc(OC)c1` displayed a solubility (kinetic) below 0.4 µg/mL. Then `Cc1cccc(-n2c(O)c(C=NCCN3CCNCC3)c(=O)[nH]c2=S)c1`, with 51.2 µg/mL (≈ 137 µM); and `CCN(CC)CCCNC(=S)Nc1ccc(Br)cc1`, with above 51.6 µg/mL. `Cc1ccc(S(=O)(=O)Nc2csc(C)c2C(=O)O)cc1` showed a solubility (kinetic) above 46.7 µg/mL. `O=C(CSCc1ccc(C(=O)O)cc1)Nc1ccc2ccccc2c1` yielded a solubility (kinetic) above 52.7 µg/mL. `O=C1CSC(c2ccccc2)N1c1ccc([N+](=O)[O-])cc1` (configuration not stated): the solubility (kinetic) was 33.4 µg/mL (≈ 111 µM). `Cc1cc(C)c(N=Cc2c(O)c3ccccc3oc2=O)c(C)c1` returned a kinetic solubility below 0.7 µg/mL. Regarding `COC(=O)c1sccc1NC(=O)Nc1cc(C)cc(C)c1`, the kinetic solubility amounted to 2.7 µg/mL (≈ 8.87 µM).

`CCCC(=O)Oc1ccc(-c2nccc(C(OC)OC)n2)cc1` returned a kinetic solubility of 46.1 µg/mL (≈ 146 µM). Turning to `Cc1ccc(NC(=O)Nc2cc(C)on2)cc1`, the solubility (kinetic) was determined as 12.8 µg/mL (≈ 55.4 µM). The compound `CN(C)C(=O)c1cc(C(=O)c2c(F)cccc2F)c[nH]1` displayed a kinetic solubility above 41.7 µg/mL. With `Cc1ccc(NC(=O)CCN2CCOCC2)cc1C`, the kinetic solubility is above 39.4 µg/mL. `COc1ccc2[nH]cc(CCn3ccc(=O)c(C)c3C)c2c1` registered a kinetic solubility of 42.2 µg/mL (≈ 142 µM).

The compound `COc1cc(NC(=O)C(Cc2ccccc2)n2cccc2)cc(OC)c1` (configuration not stated) registered a solubility (kinetic) of 16.3 µg/mL (≈ 46.5 µM). `CC(C)c1ccccc1NC(=O)CN1C(=O)c2ccccc2C1=O` showed a solubility (kinetic) of 1.6 µg/mL (≈ 4.96 µM). To `CC1CC(C)CN(C(=O)COC(=O)c2ccc(Cl)nc2)C1` (configuration not stated) belongs above 46.6 µg/mL. With `Cc1cc(/C=C2/NC(=O)NC2=O)c(C)n1-c1ccncc1`, the kinetic solubility is above 42.3 µg/mL. For `CCS(=O)(=O)C(C)(CCl)C(=O)Nc1ccc(C(=O)OC)cc1` (configuration not stated), the kinetic solubility is above 52.2 µg/mL. In turn, `CC(=O)c1cc2c(cc1NC(=O)c1ccc(Cl)cc1)OCCO2` gave a kinetic solubility below 0.7 µg/mL. To `O=C(O)c1cc(S(=O)(=O)N2CC3CC3C2C(=O)O)c(Cl)cc1Cl` (configuration not stated) belongs 52.3 µg/mL (≈ 138 µM); to `CC(C)Cn1c(SCC(=O)Nc2ccc(Cl)cc2F)nc(O)cc1=O`, above 57.9 µg/mL. `CC(=O)NC(CC(=O)O)c1ccccc1` (configuration not stated) yielded a solubility (kinetic) above 31.1 µg/mL. To `Cc1ccc(NS(=O)(=O)c2ccc(C)c(NC(=S)NCCN3CCOCC3)c2)c(C)c1` belongs above 69.4 µg/mL; to `CCOc1ccccc1NS(=O)(=O)c1csc(C(N)=O)c1`, above 49 µg/mL. Compound `COC(=O)c1ccc(C2C(C#N)=C(N)Oc3cc(N)ccc32)cc1` (configuration not stated) had a solubility (kinetic) of 11.2 µg/mL (≈ 34.9 µM). Regarding `c1ccc(-c2ccc(C(c3ccccc3)n3ccnc3)cc2)cc1` (configuration not stated), the kinetic solubility was determined as 0.7 µg/mL (≈ 2.26 µM). This solubility kinetic lies about 16-fold lower than the previous one. Compound `O=C(c1ccc2ccccc2n1)N1CCN(S(=O)(=O)c2ccccc2)CC1` came in with a solubility (kinetic) above 57.2 µg/mL.

`OCc1cccc[n+]1CCc1ccccc1.[Br-]` displayed a kinetic solubility above 44.1 µg/mL.

`O=C(Cn1cc(/C=C\[N+](=O)[O-])c2ccccc21)Nc1ccccc1` yielded a solubility (kinetic) of 2.2 µg/mL (≈ 6.85 µM). In the case of `COc1ccc(S(=O)(=O)N2CCOCC2)cc1NC(=O)COC(=O)Cc1ccccc1`, the solubility (kinetic) is 51.7 µg/mL (≈ 115 µM). Take `COc1ccc(CCN2C(=O)CSC2c2ccc(F)cc2)cc1` (configuration not stated): the kinetic solubility was found to be 34.4 µg/mL (≈ 104 µM). To `O=C1C=C(Nc2ccc(F)cc2)c2ccccc2C1=O` belongs below 0.6 µg/mL; to `O=C(N1CCN(CCO)CC1)N1c2ccccc2CCc2ccccc21`, 45.9 µg/mL (≈ 131 µM).

With `CC(C)(C)c1csc(NC(=O)c2ccccc2O)n1`, the kinetic solubility was 9.3 µg/mL (≈ 33.7 µM).

`CCN(CC)CC(C)OC(=O)c1ccccc1Cl` (configuration not stated) yielded a solubility (kinetic) of 37.9 µg/mL (≈ 140 µM). The compound `N/C(Cc1cccc2ccccc12)=N\O` had a kinetic solubility of 15.2 µg/mL (≈ 75.9 µM). To `Oc1ccccc1Oc1ncc(Br)c(Cl)n1` belongs above 45.2 µg/mL. For the compound `COc1cc(N2C(=O)CC(=O)NC2=O)cc(OC)c1OC`, the kinetic solubility is 40.7 µg/mL (≈ 138 µM).

Consider `Cc1cc2ccccn2c1C(=O)c1ccccc1F`, for which the kinetic solubility is 12.5 µg/mL (≈ 49.4 µM). Then `CCOC(=O)C1(Cc2cccc(F)c2)CCN(C(=O)c2ccoc2C)CC1`, with 52.2 µg/mL (≈ 140 µM).

Consider `Cc1ccc(NC(=O)CCOc2ccccc2C)cc1F`, for which the kinetic solubility came to 2.5 µg/mL (≈ 8.7 µM). `CC1(C)CC(NC(=O)c2ccc(Cl)cc2)CC(C)(C)N1` gave a kinetic solubility above 44.2 µg/mL. Compound `Cc1cc(Nc2cccc(F)c2)nc(N2CCOCC2)n1` came in with a kinetic solubility of 36.2 µg/mL (≈ 126 µM).

Turning to `COc1cc(C)ccc1Oc1nc(-c2ccccc2O)nc2ccccc12`, the solubility (kinetic) was below 0.4 µg/mL. The compound `O=C(Cc1c[nH]c2ccccc12)NCc1ccco1` gave a solubility (kinetic) above 38.1 µg/mL. `Cn1c(=O)c2c(nc3n2CC(CO)O3)n(C)c1=O` (configuration not stated): the solubility (kinetic) was above 37.8 µg/mL. Compound `O=C(NCCc1ccc(F)cc1)c1ccncc1` came in with a kinetic solubility above 36.6 µg/mL.

Regarding `O=C(c1ccccc1F)N1C(=O)c2cccc3cccc1c23`, the solubility (kinetic) was below 0.6 µg/mL. To `O=C(Nc1ccc2c(c1)CCC2)c1cccs1` belongs 30.8 µg/mL (≈ 127 µM); to `CC1=C(C(=O)OCC2CCCCC2)C(c2cccc(O)c2)NC(=O)N1` (configuration not stated), 37.3 µg/mL (≈ 108 µM).

As to `CSc1ncccc1C(=O)OCC(=O)N1CCCC1`, the kinetic solubility was above 42.1 µg/mL. Consider `CCCOc1ccc(Oc2nc(-c3ccncc3)nc3ccccc23)cc1`, for which the kinetic solubility is below 0.3 µg/mL. `O=C(OCC(=O)N1CCOCC1)c1ccc(Cl)cc1[N+](=O)[O-]` had a solubility (kinetic) of 48.3 µg/mL (≈ 147 µM).

Regarding `CCOC(=O)C1CCN(S(=O)(=O)c2ccc(Cl)nc2)CC1`, the solubility (kinetic) stood at 47.3 µg/mL (≈ 142 µM).

Regarding `O=[N+]([O-])c1ccccc1S(=O)(=O)Nc1ncccn1`, the kinetic solubility was above 42 µg/mL.

Compound `CNc1nc(SC)nc2ccccc12` displayed a kinetic solubility above 30.8 µg/mL. Then `COc1ccc(Oc2nc3c(c(=O)n(C)c(=O)n3C)n2C)cc1`, with above 47.4 µg/mL; and `Cc1ccc(C)c(S(=O)(=O)N2CCN(c3ncnc4sccc34)CC2)c1`, with 5.6 µg/mL (≈ 14.4 µM). Then `COC(=O)CNC(=O)C12CC3CC(C1)CC(c1ccc(C)cc1)(C3)C2`, with 6.5 µg/mL (≈ 19 µM); and `O=C(Nc1cccc(-c2cnc3ccccc3n2)c1)c1ccncc1`, with 0.6 µg/mL (≈ 1.84 µM); and `COc1ccc(CCC(=O)NCC(=O)OCc2ccccc2)cc1`, with above 49.1 µg/mL. Compound `CC(C1CC1)N(Cc1ccccc1)C(=S)Nc1ccccc1Cl` (configuration not stated) returned a solubility (kinetic) of 1.1 µg/mL (≈ 3.19 µM). `COc1cccc(CN(C)C(=O)c2ccc(N3CCCC3)c([N+](=O)[O-])c2)c1` displayed a solubility (kinetic) of 21.9 µg/mL (≈ 59.3 µM).

The compound `O=C(CSCCS(=O)(=O)c1ccc(Cl)cc1)Nc1ccccc1` had a solubility (kinetic) of 3.5 µg/mL (≈ 9.46 µM).

Turning to `O=c1c([N+](=O)[O-])cccn1Cc1ccccc1Cl`, the solubility (kinetic) is above 39.7 µg/mL. As to `CCOCCOc1cccc(C(=O)NC(c2ccccc2)c2ccccc2)c1`, the kinetic solubility is below 0.8 µg/mL. Then `Cc1cc(C)c2sc(NC(=O)CN3C(=O)CCC3=O)nc2c1`, with 46.4 µg/mL (≈ 146 µM); and `Cc1c(NC(=O)COC(=O)c2ccc(Cl)nc2)c(=O)n(-c2ccccc2)n1C`, with above 60.1 µg/mL.

Compound `COc1ccc(C(=O)O)cc1S(=O)(=O)NC(C)(C)C` registered a kinetic solubility above 43.1 µg/mL. `C=CCn1c(O)c(C(C)=NC(C)c2ccccc2)c(=O)[nH]c1=O` (configuration not stated): the kinetic solubility was above 47 µg/mL. With `CCCn1c(=O)c(C(=O)Nc2cccc(C)c2)c(O)c2ccccc21`, the kinetic solubility was below 0.4 µg/mL. As to `O=C(c1ccco1)N1CCN(C23CC4CC(CC(C4)C2)C3)CC1`, the solubility (kinetic) was above 47.2 µg/mL. `CC(=O)c1c(C)n(-c2cccc(Cl)c2)c2ccc(O)cc12` registered a solubility (kinetic) below 0.6 µg/mL.

On to `CC(=O)c1ccc(S(=O)(=O)N2CCC3(CC2)OCCO3)cc1`, for which the solubility (kinetic) was above 48.8 µg/mL.

The compound `COc1cccc(/C=C/c2nc(C#N)c(NCC(C)C)o2)c1` gave a solubility (kinetic) of 0.4 µg/mL (≈ 1.35 µM).

For `Cc1ccc(S(=O)(=O)NC(=O)Nc2cc(C)no2)cc1`, the kinetic solubility is above 44.3 µg/mL. To `Cc1ccccc1CC(=O)N1CCOCC1` belongs above 32.9 µg/mL; to `Cc1nc(S/C(C(=O)O)=C2/C(=O)Nc3ccccc32)n[nH]1`, above 45.3 µg/mL; to `Cc1cc(C(=O)CCC(=O)Nc2ncccc2C)c(C)s1`, 26.1 µg/mL (≈ 86.3 µM). In turn, `COC(=O)c1nn(-c2cccc(C(F)(F)F)c2)ccc1=O` registered a solubility (kinetic) above 44.7 µg/mL.

On to `CC(NCCc1ccc(O)cc1)C(O)c1ccc(O)cc1.Cl` (configuration not stated), for which the kinetic solubility is above 48.6 µg/mL.

With `COc1ccc2nc3oc(C(=O)NCCCOC(C)C)cc3cc2c1`, the kinetic solubility worked out at 12 µg/mL (≈ 35 µM). `Cc1cc(C)c(C)c(S(=O)(=O)Nc2cccnc2)c1C` came in with a kinetic solubility of 3.6 µg/mL (≈ 12.4 µM). Against the preceding compound, the solubility kinetic is about 3.3-fold lower. Then `O=C(Oc1cc(=O)oc2c1c(=O)n1c3c(cccc23)CC1)c1ccccc1`, with 33 µg/mL (≈ 91.8 µM); and `Cc1ccc(NC(=S)NC2CCCC2)c(C)c1`, with 33.3 µg/mL (≈ 134 µM). `CC(C)[C@H](Nc1ncnc2c1oc1ccccc12)C(=O)O` registered a kinetic solubility above 42.8 µg/mL. With `O=C(O)C(=O)O.c1cncc(CNCCc2ccc3c(c2)OCO3)c1`, the solubility (kinetic) is above 52 µg/mL. `CC(C)CCNC(=O)c1cc2c(=O)n3ccccc3nc2s1` came in with a kinetic solubility of 4.6 µg/mL (≈ 14.6 µM). `NC(=O)c1ccc(NCC2CCCO2)c([N+](=O)[O-])c1` (configuration not stated) came in with a kinetic solubility above 39.8 µg/mL. With `N=c1c2c(ncn1CCCO)Oc1cc(O)ccc1C2c1ccccc1` (configuration not stated), the kinetic solubility was 35.3 µg/mL (≈ 101 µM). `CC(N)Cc1cn(Cc2ccccc2)c2ccccc12.Cl` (configuration not stated): the solubility (kinetic) was above 45.1 µg/mL.

`CN(C)CCn1ccc(O)c(Cc2ccc(Cl)cc2)c1=O` had a solubility (kinetic) of 44.8 µg/mL (≈ 146 µM). To `CC1(C)OC2C(O1)[C@@H](CO)O[C@H]2n1cnc2c(N)ncnc21` (some centres not stated) belongs above 46.1 µg/mL; to `Cc1cccnc1NC(=O)CCC(=O)c1cccs1`, above 41.2 µg/mL. To `N#CCc1ccc(OC(=O)Nc2ccccc2)cc1` belongs 36.4 µg/mL (≈ 144 µM); to `CC(=O)N1CCN(C(=O)c2cccc(S(=O)(=O)N3c4ccccc4CC3C)c2)CC1` (configuration not stated), above 64.1 µg/mL; to `COc1ccc(CN2C(=O)c3ccccc3C2=O)cc1C(=O)O`, above 46.7 µg/mL. In turn, `C=CCNc1nc(C(=O)OCC(=O)c2ccc(F)cc2)cs1` came in with a kinetic solubility of 11.2 µg/mL (≈ 35 µM). `CCc1ccccc1NC(=O)c1ccc(-c2csc(C)n2)cc1`: the kinetic solubility is 1 µg/mL (≈ 3.1 µM). Compared with the last compound, the solubility kinetic is about 11-fold lower. Compound `CC(=O)c1c(OC(=O)c2ccccc2)ccnc1C(F)(F)F` had a kinetic solubility above 46.4 µg/mL. For `O=C(NC1C2CC3CC(C2)CC1C3)c1ccc2c(c1)OCO2` (configuration not stated), the solubility (kinetic) was 7.9 µg/mL (≈ 26.4 µM). The compound `COc1ccc(Nc2nc(C)nc3c2oc2ccccc23)cc1` gave a solubility (kinetic) of 1.7 µg/mL (≈ 5.57 µM). Compared with the last compound, the solubility kinetic is about 4.6-fold lower.
